Among the data in PMC4979471 (Cell Death Discovery, 2015) are remaining activity values, retold here.

Read-outs that look alike come from different tables or passages of the source.

What all share (assay): Kinase selectivity, P33-radiolabeled assay
Common to all, as to format: biochemical
Conditions in all cases: 10 μM ATP

The target of one assay is T1, SNARK/NUAK2 (Homo sapiens, UniProt Q9H093).
T1 construct: purchased Reaction Biology Corp
T1 sequence (Q9H093 1-628): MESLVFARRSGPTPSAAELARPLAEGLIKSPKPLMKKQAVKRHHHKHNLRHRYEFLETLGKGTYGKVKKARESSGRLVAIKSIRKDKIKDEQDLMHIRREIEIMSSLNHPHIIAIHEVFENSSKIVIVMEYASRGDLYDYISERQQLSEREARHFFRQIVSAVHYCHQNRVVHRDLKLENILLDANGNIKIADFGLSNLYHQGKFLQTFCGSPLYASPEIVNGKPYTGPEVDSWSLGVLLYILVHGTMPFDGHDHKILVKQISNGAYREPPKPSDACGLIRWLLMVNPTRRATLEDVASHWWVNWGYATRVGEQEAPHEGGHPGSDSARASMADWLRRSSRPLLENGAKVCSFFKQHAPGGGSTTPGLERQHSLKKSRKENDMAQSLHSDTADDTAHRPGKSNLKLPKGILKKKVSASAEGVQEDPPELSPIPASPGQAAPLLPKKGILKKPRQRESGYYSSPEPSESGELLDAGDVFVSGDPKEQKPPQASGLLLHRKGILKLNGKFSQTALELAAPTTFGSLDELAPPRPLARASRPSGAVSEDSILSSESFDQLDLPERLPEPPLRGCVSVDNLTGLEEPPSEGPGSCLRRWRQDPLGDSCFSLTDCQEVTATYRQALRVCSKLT
In short, it runs like this:
(§1)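 Activity relative to DMSO controls (%) was measured for compound at 10 μM. Assays ran at 10 μM ATP, in duplicate.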

Another assay deals with T2, CAMK1b (Homo sapiens, UniProt Q6P2M8).
T2 construct: purchased Reaction Biology Corp
In a few lines:
as §1

A further assay addresses T3, NIK/MAP3K14 (Homo sapiens, UniProt Q99558).
T3 construct: purchased Reaction Biology Corp
In short, it runs like this: as §1

The next assay has as its target T4, LYN B (Homo sapiens, UniProt P07948).
T4 construct: purchased Reaction Biology Corp
In a few lines:
as §1

Another assay addresses T5, TEC (Homo sapiens, UniProt P42680).
T5 construct: purchased Reaction Biology Corp
T5 sequence (P42680 1-631): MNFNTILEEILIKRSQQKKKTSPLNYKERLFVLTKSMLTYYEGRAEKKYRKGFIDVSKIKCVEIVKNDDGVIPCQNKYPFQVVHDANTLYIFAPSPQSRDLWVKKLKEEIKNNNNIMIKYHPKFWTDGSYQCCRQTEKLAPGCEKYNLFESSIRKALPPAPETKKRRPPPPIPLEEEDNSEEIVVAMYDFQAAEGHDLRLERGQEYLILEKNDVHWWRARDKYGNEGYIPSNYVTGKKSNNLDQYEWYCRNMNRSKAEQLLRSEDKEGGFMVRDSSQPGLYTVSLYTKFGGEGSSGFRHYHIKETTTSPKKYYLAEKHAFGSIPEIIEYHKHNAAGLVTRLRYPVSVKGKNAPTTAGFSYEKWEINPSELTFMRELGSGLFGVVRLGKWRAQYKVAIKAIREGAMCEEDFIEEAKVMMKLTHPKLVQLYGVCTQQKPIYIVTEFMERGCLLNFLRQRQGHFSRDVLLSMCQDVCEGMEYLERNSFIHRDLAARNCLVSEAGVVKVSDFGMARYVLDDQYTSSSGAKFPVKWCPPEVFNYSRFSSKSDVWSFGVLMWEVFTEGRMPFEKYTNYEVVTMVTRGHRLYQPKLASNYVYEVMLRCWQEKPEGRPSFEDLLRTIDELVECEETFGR
In a few lines: as §1

Another assay addresses T6, EPHA1 (Homo sapiens, UniProt P21709).
T6 construct: purchased Reaction Biology Corp
T6 sequence (P21709 26-976): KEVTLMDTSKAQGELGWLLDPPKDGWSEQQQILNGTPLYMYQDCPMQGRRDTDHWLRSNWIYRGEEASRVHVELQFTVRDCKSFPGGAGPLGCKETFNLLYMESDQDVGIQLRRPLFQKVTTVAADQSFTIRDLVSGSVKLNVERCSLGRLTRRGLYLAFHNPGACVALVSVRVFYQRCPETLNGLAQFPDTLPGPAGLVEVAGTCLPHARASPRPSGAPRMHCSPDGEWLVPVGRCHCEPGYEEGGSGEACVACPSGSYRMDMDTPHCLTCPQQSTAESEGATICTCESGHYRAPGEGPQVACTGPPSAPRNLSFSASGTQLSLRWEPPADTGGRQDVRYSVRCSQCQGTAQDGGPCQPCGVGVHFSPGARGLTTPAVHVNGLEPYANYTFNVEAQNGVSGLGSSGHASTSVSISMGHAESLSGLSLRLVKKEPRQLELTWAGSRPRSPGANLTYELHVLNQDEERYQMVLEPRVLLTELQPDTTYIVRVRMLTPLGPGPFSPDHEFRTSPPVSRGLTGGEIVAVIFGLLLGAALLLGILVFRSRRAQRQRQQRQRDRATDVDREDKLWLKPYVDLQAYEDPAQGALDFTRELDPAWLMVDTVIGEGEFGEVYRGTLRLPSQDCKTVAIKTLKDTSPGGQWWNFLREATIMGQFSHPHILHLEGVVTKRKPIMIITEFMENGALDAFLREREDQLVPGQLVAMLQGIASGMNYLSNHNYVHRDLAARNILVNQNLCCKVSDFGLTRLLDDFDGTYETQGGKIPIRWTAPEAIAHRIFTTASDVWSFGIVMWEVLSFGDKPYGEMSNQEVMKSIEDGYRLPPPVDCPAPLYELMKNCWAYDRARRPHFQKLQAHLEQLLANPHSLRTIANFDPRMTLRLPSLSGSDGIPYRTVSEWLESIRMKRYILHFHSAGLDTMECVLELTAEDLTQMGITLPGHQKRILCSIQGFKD
In a few lines: as §1

Setting [1] is: read-out: % Enzyme Activity (relative to DMSO controls) AVG.
The mark [2] stands for this setting: read-out: % Enzyme Activity (relative to DMSO controls) Data 1.
Setting [3] is: read-out: % Enzyme Activity (relative to DMSO controls) Data 2.

T4 sequence (P07948 1-491 isoform P07948-2): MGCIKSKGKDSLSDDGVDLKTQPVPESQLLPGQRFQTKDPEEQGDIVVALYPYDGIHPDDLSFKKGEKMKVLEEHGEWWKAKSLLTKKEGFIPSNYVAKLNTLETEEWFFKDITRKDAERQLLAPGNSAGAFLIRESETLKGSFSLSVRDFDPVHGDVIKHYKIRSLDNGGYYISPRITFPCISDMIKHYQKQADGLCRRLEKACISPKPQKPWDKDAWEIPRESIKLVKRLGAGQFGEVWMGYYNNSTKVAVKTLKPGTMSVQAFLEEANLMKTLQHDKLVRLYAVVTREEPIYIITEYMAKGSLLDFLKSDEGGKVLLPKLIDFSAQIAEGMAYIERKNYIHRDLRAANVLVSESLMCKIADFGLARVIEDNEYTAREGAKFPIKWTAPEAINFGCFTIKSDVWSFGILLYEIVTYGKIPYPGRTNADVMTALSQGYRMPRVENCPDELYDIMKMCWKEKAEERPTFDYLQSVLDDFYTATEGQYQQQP
T2 sequence (Q6P2M8 whole entry): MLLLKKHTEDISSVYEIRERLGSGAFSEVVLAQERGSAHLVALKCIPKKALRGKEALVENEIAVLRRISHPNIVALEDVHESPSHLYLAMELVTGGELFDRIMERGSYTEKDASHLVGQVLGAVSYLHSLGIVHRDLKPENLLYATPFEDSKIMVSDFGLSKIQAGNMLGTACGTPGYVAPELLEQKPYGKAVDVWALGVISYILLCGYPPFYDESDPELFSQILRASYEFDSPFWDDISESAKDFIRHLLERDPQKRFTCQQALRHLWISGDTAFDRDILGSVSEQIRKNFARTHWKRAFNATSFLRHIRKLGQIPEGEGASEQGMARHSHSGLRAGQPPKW
T3 sequence (Q99558 whole entry): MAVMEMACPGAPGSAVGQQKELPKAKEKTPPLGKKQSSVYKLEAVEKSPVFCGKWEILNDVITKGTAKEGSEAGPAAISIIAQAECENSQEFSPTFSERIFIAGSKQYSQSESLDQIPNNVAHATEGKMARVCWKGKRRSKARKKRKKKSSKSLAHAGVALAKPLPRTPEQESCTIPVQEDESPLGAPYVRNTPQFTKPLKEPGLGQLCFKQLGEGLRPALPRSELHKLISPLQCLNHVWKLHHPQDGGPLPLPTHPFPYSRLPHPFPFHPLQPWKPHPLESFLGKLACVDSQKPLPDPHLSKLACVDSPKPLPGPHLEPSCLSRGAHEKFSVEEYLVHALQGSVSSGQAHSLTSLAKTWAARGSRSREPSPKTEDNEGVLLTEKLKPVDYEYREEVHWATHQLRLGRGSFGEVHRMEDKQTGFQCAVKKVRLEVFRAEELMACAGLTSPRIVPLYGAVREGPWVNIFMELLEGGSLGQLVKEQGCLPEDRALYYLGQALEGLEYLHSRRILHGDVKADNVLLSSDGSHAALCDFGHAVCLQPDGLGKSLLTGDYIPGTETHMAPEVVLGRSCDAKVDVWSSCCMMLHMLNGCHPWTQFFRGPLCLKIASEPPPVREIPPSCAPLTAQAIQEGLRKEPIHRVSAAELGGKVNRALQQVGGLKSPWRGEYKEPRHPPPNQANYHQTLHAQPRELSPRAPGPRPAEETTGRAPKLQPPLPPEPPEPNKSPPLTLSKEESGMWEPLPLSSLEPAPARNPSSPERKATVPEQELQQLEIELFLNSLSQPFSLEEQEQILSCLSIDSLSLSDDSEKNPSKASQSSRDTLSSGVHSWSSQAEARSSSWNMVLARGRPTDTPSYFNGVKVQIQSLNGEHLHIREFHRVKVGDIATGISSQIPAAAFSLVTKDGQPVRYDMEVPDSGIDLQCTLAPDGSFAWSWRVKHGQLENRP

Consider `CC(C)(C)C(=O)N1N=CC[C@H]1c1ccccc1` [GSK′963], for which the remaining activity at 10 µM at SNARK/NUAK2 (setting [1]) was 99.1%; on SNARK/NUAK2 (setting [2]) it was 99.2%; at SNARK/NUAK2 (setting [3]) it was 99%; at CAMK1b (setting [1]), 96.4%; at CAMK1b (setting [2]), 97.1%; at CAMK1b (setting [3]), 95.8%. Further, the remaining activity at 10 µM is 98.2% at NIK/MAP3K14 (setting [1]); 93.4% on NIK/MAP3K14 (setting [2]); 103% on NIK/MAP3K14 (setting [3]); 99.7% on LYN B (setting [1]); 103% on LYN B (setting [2]); 96% on LYN B (setting [3]). The remaining activity at 10 µM at TEC (setting [1]) worked out at 104%; at TEC (setting [2]) it was 98.7%; at TEC (setting [3]), 109%; on EPHA1 (setting [1]), 106%; on EPHA1 (setting [2]), 107%; at EPHA1 (setting [3]), 106%.
